Tests used:
Type in all cases: cell-based
[1] = system: rat glial cells C6; assay: Protection from necrosis induced by maitotoxin, C6 (wst-1 viability); settings: single product at 50 μM, n = 3 for Example 2, else n = 1
Method: (§1) Human neuroblastomas SHSY5Y and rat glial cells C6 are seeded at 25 000 cells per well in 96-well plates in DMEM 10% FBS for 24 hours. The L6 rat myoblasts are seeded at 1000 cells per well in DMEM 10% FBS on 96-well microplates coated beforehand with gelatin 0.5% PBS. After culture for 3 days the medium is removed and replaced with a differentiation medium (DMEM+10 μg/ml of insulin+100 μg/ml of transferrin). 50 μl of product A plus 50 μl of solvent or 50 μl of product B are placed in the wells. After incubation for 1 hour at 37° C. under an atmosphere of 5% CO2, 10 μl of maitotoxin is added in order to obtain a final concentration of 0.1 nM to 1 nM (according to the cell type). After incubation for 3 hours at 37° C. under an atmosphere of 5% CO2, the cell viability is determined by adding 10 μl of tetrazolium salts (wst-1, Roche, ref: 1644807). The tetrazolium salts are cleaved into formazan molecules by mitochondrial dehydrogenases. The quantity of formazan formed is directly correlated to the number of metabolically active cells in the culture. Measurement of the absorbance of the formazan is carried out using a multiwell photometer at a wavelength of 420 nm against a reference wavelength of 620 nm.
(§2) The theoretical effect was obtained by multiplying the percentage of dead cells in the presence of product A by the percentage of dead cells in the presence of product B (Table 3). The percentage protection against cell death induced by MTX being the percentage of cells kept alive in the presence of the product or products.
In the light of the previous results, the combination of Example 1 with product A and product B at a rate of 100 μM of each of the products is carried out on human neuroblastomas (SHSY5Y; (Table 5A) and on glial cells with 25 μM of product A and 50 μM of product B (C6; Table 5B) on a larger number of cases.

[2] = system: calpain activity in human neuroblastomas (SHSY5Y); assay: In situ calpain activity in human neuroblastomas SHSY5Y stimulated by maitotoxin; settings: read-out: Inhibition human calpain I, in situ (SHSY5Y) [IC50 (nM)]; n = 6; maitotoxin 1 nM; 4 h
Method: Human neuroblastomas SHSY5Y and rat glial cells C6 are seeded at a rate of 50,000 and 25,000 cells respectively per well on 96-well plates in DMEM 10% FBS. The next day, the cells which have adhered are washed 3 times in DMEM medium without serum and 40 mM Hepes. 100 microlitres of product B is placed in the wells. After incubation for 1 hour at 37° C. under an atmosphere of 5% CO2, 10 μl containing the fluorescent substrate of calpain (Suc-Leu-Tyr-AMC) and maitotoxin (Sigma, ref: M-9159), in order to obtain a final concentration in the well of 100 μM and of 1 nM respectively are added.
In order to determine the total activity of the cell enzyme, wells containing no product are added to the plate (100 μL DMSO 100th plus 10 μl of MTX and substrate). The background noise is determined by adding control wells with no MTX. Each concentration of the products (0.3 μM to 200 μM for the SHSY5Y's and 0.01 μM to 100 μM for the C6's) is tested in triplicate. The plates are shaken, the fluorescence is read at 380/460 nm using the Victor at T zero. Incubation takes place for four hours for the SHSY5Y and 1 hour 30 minutes for the C6 cells at 30° C. in darkness.

[3] = system: human neuroblastomas SHSY5Y; assay: Protection from necrosis induced by maitotoxin, SHSY5Y (wst-1 viability); settings: for Protection from necrosis induced by MTX: SHSY5Y, n=2, 0.1 nM maitotoxin; for Protection from necrosis induced by MTX on SHSY5Y: n = 8, single product at 100 μM
Method: as §1, §2
In a first series of experiments, the concentration of product A in Example 1 is fixed (100 μM), product B is added at concentrations varying from zero to 100 μM (Table 4A). In a second series of experiments, product B of Example 1 is fixed at 100 μM, product A is added at concentrations varying from zero to 100 μM (Table 4B).

Compound: CC(C)C[C@@H](C=O)NC(=O)[C@H](CC(C)C)NC(=O)OCc1ccccc1 [EXAMPLE 1 B, benzyl (1S)-1-({[(1S)-1-formyl-3-methylbutyl]amino}carbonyl)-3-methylbutylcarbamate]
- Protection from necrosis induced by MTX on C6 [1]: 9.63%
- Protection from necrosis induced by MTX on C6 ([1]; listed as EXAMPLE 6 B): 4.91%
- Protection from necrosis induced by MTX on C6 ([1]; listed as Z-Leu-Leu-H): not active
- IC50 [2]: 13400 ± 2390 nM
- Protection from necrosis induced by MTX ([3]; single compound at 12.5 μM): 6.89 ± 1.51%
- Protection from necrosis induced by MTX ([3]; single compound at 25 μM): 6.94 ± 0.2%
- Protection from necrosis induced by MTX ([3]; single compound at 50 μM): 9.01 ± 0.83%
- Protection from necrosis induced by MTX ([3]; single compound at 100 μM): 17.52 ± 2.69%
- Protection from necrosis induced by MTX on SHSY5Y [3]: 12.87 ± 3.72%
- Protection from necrosis induced by MTX on SHSY5Y ([3]; listed as Z-Leu-Leu-H): not active
